Measurements taken from patent US11879021B2, “Cyclic peptides and uses thereof” (UNIVERSITÉ DE MONTRÉAL, priority 2016, dated 2024).

Biological target: T1, CD36 (Rattus norvegicus, UniProt Q07969)
T1 construct: from tissue; host or cells: Heart (cardiac membranes) of Sprague Dawley rats from Charles River
Test: Competition binding of photoactivatable [125I]-Tyr-Bpa-Ala-Hexarelin to CD36 in rat cardiac membranes
Settings: competition with [125I]-Tyr-Bpa-Ala-Hexarelin, rat heart membranes; read-out: IC50 (μM), binding affinity for CD36
Experimental: Hearts from Sprague Dawley rats (300-325 g) from Charles River were cut into small pieces and homogenized with a Polytron® at low speed, 3×15 sec in buffer A (10 mM NaHCO3, 5 mM NaN3, 10 μM Pefabloc®, 0.1 μM Aprotinin, 1 μM Pepstatin A, 1 μM Leupeptin, pH 7.0) at a concentration of […] of tissue. The homogenate was first centrifuged at 8,700×g for 20 min in a Sorvall® centrifuge and the supernatant was collected on ice. The pellet was resuspended and re-homogenized with a Glass-Teflon® Potter by 5 strokes. This homogenate was recentrifuged at 8,700×g for 10 min and the resulting supernatant was combined with the first collected supernatant. The combined supernatant was centrifuged at 35,000×g for 20 min. The pellet fraction obtained was resuspended in Buffer B (20 mM Tris-maleate, 0.6M KCl, pH 6.8) in a volume corresponding to 20 mL/g of fresh tissue using a glass homogenizer with a Teflon pestle. The resulting suspension was centrifuged again at 35,000×g for 60 min. and the pellet fraction obtained was resuspended in Buffer C (10 mM Tris/HCl buffer pH 7.4) and thoroughly homogenized in a glass with a Teflon® pestle (20 ml/g of fresh tissue). This suspension was submitted to another centrifugation at 35,000×g for 60 min. The collected pellet was resuspended in 50 mM Tris/HCl buffer pH 7.4) containing 2 mM EGTA in a final volume corresponding to 1-2 mL/g of fresh tissue. The membrane preparation obtained was frozen at −80° C. Protein concentration was determined using the bicinchoninic acid (BCA) method, employing BSA as standard.
The reaction was started by adding 3 nmol of H2O2 for 5 min at room temperature. This step was repeated twice with a period of 5 min of incubation for each addition. The reaction was stopped by diluting the mixture with 1 mL of 0.1% TFA. The radioiodinated peptide was purified by HPLC on a reverse-phase Vydac® C18 column with a 60-min linear gradient from 20% to 50% of acetonitrile in 0.1% TFA. The eluted radiolabelled tracer was collected, aliquoted (50×10^6 cpm/fraction) and stored at −80° C.
Binding studies with MPE-298 were done with increasing concentrations from 0.01 to 5 μM of competition ligands. Nonspecific binding was defined as binding not displaced by 50 μM corresponding peptide. All peptide containing solutions were diluted in Buffer B. Buffer A and B were degassed under vacuum, and used in capped tubes in order to minimize lipid peroxidation. Before the incubation period, all tubes were put under a low flow of nitrogen. All material was kept on ice and the binding assay was performed in darkness. After an incubation period of 60 min at 22° C. (vortexing every 15 min), membranes were submitted to irradiation with UV lamps (365 nm) for 15 min at 4° C. After centrifugation at 12,000×g for 15 minutes, the pellets were resuspended in 40 μl of sample buffer (62 mM Tris-HCl, pH 6.8, 2% SDS, 10% glycerol, 15% 2-mercaptoethanol, and 0.05% bromophenol blue), and boiled for 5 min prior to being subjected to electrophoresis. Proteins (50 μg/40 μl) were separated on a 7.5% SDS-PAGE Bio-Rad® Mini-Protean electrophoresis system (150 V for 1 h). The gels resulting from SDS/PAGE were fixed, colored in Coomassie Brilliant Blue R-250, dried, exposed to a storage phosphor intensifying screen (Amersham Biosciences), and analysed using a Typhoon® PhosphorImager (GE Healthcare Life Sciences®). […] The curves were analysed by using software package (Graphpad® prism version 7.0).

T1 sequence (Q07969 whole entry): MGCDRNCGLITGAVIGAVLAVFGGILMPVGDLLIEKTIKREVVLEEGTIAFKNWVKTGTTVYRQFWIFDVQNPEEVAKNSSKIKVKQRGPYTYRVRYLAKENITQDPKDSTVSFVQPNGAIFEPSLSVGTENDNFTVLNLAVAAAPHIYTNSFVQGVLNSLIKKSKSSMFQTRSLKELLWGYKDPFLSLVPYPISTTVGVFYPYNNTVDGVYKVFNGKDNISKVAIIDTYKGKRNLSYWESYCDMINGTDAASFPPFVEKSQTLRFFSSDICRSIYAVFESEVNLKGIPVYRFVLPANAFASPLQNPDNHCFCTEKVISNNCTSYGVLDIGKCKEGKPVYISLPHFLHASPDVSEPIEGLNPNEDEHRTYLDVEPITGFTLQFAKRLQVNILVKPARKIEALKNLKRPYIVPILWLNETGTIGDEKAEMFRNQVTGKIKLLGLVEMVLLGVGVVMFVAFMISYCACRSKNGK

## C=CCN1CC#CCN(NC(=O)[C@H](C)N)C(=O)N[C@H](Cc2c[nH]c3ccccc23)C(=O)N[C@@H](C)C(=O)N[C@@H](Cc2c[nH]c3ccccc23)C(=O)N[C@H](Cc2ccccc2)C(=O)N[C@H](C(N)=O)CCCC1 [MPE-298]
  IC50: 0.07 µM
